# Data taken from ChEMBL document CHEMBL1138590, “Discovery of novel dihydro-9,10-ethano-anthracene carboxamides as glucocorticoid receptor modulators” (Bioorg Med Chem Lett, 2009).
# What was measured:
# Glucocorticoid receptor [1] = molecular target: T1, Glucocorticoid receptor (Homo sapiens, UniProt P04150); assay: Transrepression activity at GR in IL-1-beta-stimulated human A549 cells assessed as inhibition of NF-kappaB-dependent E-selectin transcription by luciferase reporter gene assay; assay type: cell-based
# T1 sequence (P04150 whole entry): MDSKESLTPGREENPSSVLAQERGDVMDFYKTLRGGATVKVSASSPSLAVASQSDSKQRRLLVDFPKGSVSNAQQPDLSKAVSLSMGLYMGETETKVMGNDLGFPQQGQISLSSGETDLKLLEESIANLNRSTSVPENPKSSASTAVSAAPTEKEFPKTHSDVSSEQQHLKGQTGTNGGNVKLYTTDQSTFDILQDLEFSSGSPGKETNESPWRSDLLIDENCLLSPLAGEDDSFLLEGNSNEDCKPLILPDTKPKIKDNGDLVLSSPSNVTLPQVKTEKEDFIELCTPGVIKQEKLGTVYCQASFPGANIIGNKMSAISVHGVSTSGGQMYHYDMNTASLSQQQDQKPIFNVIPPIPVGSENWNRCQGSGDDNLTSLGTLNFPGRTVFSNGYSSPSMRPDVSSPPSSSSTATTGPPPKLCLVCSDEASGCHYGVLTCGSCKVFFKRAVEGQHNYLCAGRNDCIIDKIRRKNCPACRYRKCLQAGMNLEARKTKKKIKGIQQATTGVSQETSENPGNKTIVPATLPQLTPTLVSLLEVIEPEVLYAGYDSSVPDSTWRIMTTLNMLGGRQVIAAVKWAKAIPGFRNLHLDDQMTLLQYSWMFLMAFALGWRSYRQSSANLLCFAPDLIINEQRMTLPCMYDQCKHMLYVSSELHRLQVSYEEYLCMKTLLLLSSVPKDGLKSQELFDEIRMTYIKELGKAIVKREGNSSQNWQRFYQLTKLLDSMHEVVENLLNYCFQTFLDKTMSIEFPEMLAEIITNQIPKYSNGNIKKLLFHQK
# Glucocorticoid receptor [2] = molecular target: T1, Glucocorticoid receptor; assay: Agonist activity at GR ligand binding domain expressed in human NP1 cells assessed as glucocorticoid response element transactivation by GAL4 luciferase reporter gene assay; assay type: cell-based
# Glucocorticoid receptor [3] = molecular target: T1, Glucocorticoid receptor; assay: Transrepression activity at GR in PMA-stimulated human A549 cells assessed as inhibition of AP1 response element-induced luciferase reporter gene activity; assay type: cell-based
# Glucocorticoid receptor [4] = molecular target: T1, Glucocorticoid receptor; assay: Displacement of FITC-dexamethasone from human recombinant glucocorticoid receptor alpha by fluorescence polarization assay
# [5] = molecular target: T2, Mineralocorticoid receptor (Homo sapiens) (UniProt P08235); assay: Antagonist activity at mineralocorticoid receptor in human A549 cells assessed as inhibition of 1.25 nM aldosterone-induced effect at 0.1 uM; assay type: functional, cell-based
# T2 sequence (whole entry): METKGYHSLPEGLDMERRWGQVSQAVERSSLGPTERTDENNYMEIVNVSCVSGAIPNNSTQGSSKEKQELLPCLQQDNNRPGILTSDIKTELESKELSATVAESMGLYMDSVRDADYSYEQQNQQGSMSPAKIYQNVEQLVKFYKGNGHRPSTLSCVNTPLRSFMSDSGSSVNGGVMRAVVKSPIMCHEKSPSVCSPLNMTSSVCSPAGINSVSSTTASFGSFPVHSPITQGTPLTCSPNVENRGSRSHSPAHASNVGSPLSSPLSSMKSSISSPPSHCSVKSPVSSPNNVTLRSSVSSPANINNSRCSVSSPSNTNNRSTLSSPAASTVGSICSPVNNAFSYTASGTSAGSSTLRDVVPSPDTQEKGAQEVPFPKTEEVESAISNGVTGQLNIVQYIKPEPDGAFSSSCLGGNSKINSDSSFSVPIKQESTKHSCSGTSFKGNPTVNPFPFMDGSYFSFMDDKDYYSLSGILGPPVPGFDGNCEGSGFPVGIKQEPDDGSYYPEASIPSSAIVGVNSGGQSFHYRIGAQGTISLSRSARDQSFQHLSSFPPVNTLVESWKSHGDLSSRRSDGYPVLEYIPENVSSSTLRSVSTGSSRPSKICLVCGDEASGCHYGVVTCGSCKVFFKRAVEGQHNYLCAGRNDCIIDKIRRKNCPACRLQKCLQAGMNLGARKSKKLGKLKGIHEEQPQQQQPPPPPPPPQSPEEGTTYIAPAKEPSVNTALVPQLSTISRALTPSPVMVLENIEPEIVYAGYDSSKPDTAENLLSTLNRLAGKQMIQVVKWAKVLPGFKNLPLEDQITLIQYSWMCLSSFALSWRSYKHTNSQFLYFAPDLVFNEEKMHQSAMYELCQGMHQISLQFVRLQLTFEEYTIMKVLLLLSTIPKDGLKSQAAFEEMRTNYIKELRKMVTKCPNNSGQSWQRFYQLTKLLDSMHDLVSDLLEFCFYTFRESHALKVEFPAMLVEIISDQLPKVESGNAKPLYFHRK
SMILES,EC50 (Glucocorticoid receptor [1]),EC50 (Glucocorticoid receptor [2]),EC50 (Glucocorticoid receptor [3]),Ki (Glucocorticoid receptor [4]),inhibition [5]
CC1(C(=O)Nc2nccs2)CC2(Br)c3ccccc3C1c1ccccc12 (stereo not given),0.0099 µM,0.175 µM,0.119 µM,–,–
CC1(C(=O)Nc2nccs2)CC2(C#N)c3ccccc3C1c1ccccc12 (stereo not given),0.426 µM,> 10 µM,0.331 µM,–,–
O=C(Nc1nccs1)C1(CCO)CC2c3ccccc3C1c1ccccc12 (stereo not given),–,–,> 5 µM,0.303 µM,–
CC1(C(=O)Nc2nccs2)CC2c3ccccc3C1([N+](=O)[O-])c1ccccc12 (stereo not given),> 5 µM,> 10 µM,1.16 µM,–,–
CC1(C(=O)Nc2nncs2)CC2c3ccccc3C1c1ccccc12 (stereo not given),–,–,0.295 µM,0.0054 µM,–
Cc1cnc(NC(=O)C2(C)CC3c4ccccc4C2c2ccccc23)s1 (stereo in doubt; 3),–,–,0.61 µM,0.0127 µM,–
CC12CC(C)(C(=O)Nc3nncs3)C(c3ccccc31)c1ccccc12 (stereo in doubt; 18b),0.152 µM,> 2.5 µM,3.83 µM,0.0497 µM,–
CC1(C(=O)Nc2nccs2)CC2(Cl)c3ccccc3C1c1ccccc12 (stereo not given),0.0123 µM,0.322 µM,0.229 µM,–,–
CC12CC(C)(C(=O)Nc3nccs3)C(c3ccccc31)c1ccccc12 (stereo in doubt; 17),0.0083 µM,0.121 µM,0.0147 µM,–,–
CC1(C(=O)Nc2ccc([N+](=O)[O-])cc2O)CC2c3ccccc3C1c1ccccc12 (stereo not given),–,–,> 5 µM,0.158 µM,–
CN(C(=O)C1(C)CC2c3ccccc3C1c1ccccc12)c1nccs1 (stereo not given),–,–,1.24 µM,0.0825 µM,–
CC12CC(C)(C(=O)Nc3nncs3)C(c3ccccc31)c1ccccc12 (stereo in doubt; 18),0.0052 µM,> 10 µM,0.0169 µM,–,–
CC12CC(C)(C(=O)Nc3nccs3)C(c3ccccc31)c1ccccc12 (stereo in doubt; 17a),–,–,–,–,49%
CCC1(C(=O)Nc2nccs2)CC2c3ccccc3C1c1ccccc12 (stereo not given),–,–,> 2.5 µM,0.0039 µM,–
C[C@]1(C(=O)Nc2nccs2)CC2(C#N)c3ccccc3C1c1ccccc12,> 5 µM,> 10 µM,0.837 µM,0.0378 µM,–
"CC12CC(C)(C(=O)Nc3nncs3)C(c3ccccc31)c1ccccc12 (single isomer, unassigned; isomer A)",–,–,–,–,53%
CC1(C(=O)Nc2nccs2)CC2([N+](=O)[O-])c3ccccc3C1c1ccccc12 (stereo not given),> 5 µM,> 10 µM,1.07 µM,–,–
"Cc1cnc(NC(=O)C2(C)CC3c4ccccc4C2c2ccccc23)s1 (single isomer, unassigned; isomer B)",–,–,0.972 µM,0.187 µM,–
C[C@]1(C(=O)Nc2nccs2)CC2c3ccccc3C1c1ccccc12,–,–,0.544 µM,0.0262 µM,–
Cc1nc(NC(=O)C2(C)CC3c4ccccc4C2c2ccccc23)sc1C (stereo not given),–,–,0.923 µM,0.0226 µM,–
"CC12CC(C)(C(=O)Nc3nccs3)C(c3ccccc31)c1ccccc12 (single isomer, unassigned; isomer B)",> 5 µM,> 10 µM,0.8 µM,0.0678 µM,–
CC1(C(=O)Nc2ncc[nH]2)CC2c3ccccc3C1c1ccccc12 (stereo not given),–,–,> 5 µM,0.0926 µM,–
Cc1csc(NC(=O)C2(C)CC3c4ccccc4C2c2ccccc23)n1 (stereo not given),–,–,> 5 µM,0.0087 µM,–
CC1(C(=O)Nc2nccs2)CC2c3ccccc3C1(C#N)c1ccccc12 (stereo not given),0.678 µM,> 10 µM,0.874 µM,–,–
